# Test results: paper PMC8344233, “Anticancer activity and toxicity of new quaternary ammonium geldanamycin derivative salts and their mixtures with potentiators” (Journal of Enzyme Inhibition and Medicinal Chemistry, 2021)
# Read-outs that look alike come from different tables or passages of the source.
# What was measured:
# Type in all cases: cell-based, human
# HeLa = test: MTT cytotoxicity assay, HeLa (1st panel); settings: for IC50: Homo sapiens, HeLa, ± SD, MTT, 72 h; for selectivity index SI (HeLa): IC50 normal cell line CCD39Lu/IC50 HeLa
# Experimental: Cell survival was measured as the percentage absorbance compared to the control (nontreated cells). […]
# SI indexes were calculated from equation SI = IC50 normal cell line HDF/IC50 respective cancerous cell line (Table 2). A beneficial SI > 1.0 indicates a compound with efficacy against tumor cell greater than the toxicity against normal cells.
# (§1) All experiments were carried out with human breast adenocarcinoma (MDA-MB-231 and MCF-7), hepatocellular carcinoma (HepG2), human cervical adenocarcinoma (HeLa) cancer cell lines, and human normal lung fibroblast (CCD39Lu) cell line. The cell line was purchased from the European Collection of Cells Cultures (ECACC, Salisbury, UK), and cultured in DMEM with phenol red supplemented with 10% (v/v) FBS, 1% (v/v) penicillin/streptomycin, and 1% (v/v) L-glutamine at 37 °C, in a humidified atmosphere containing 5% CO2.
# (§2) The tested compounds were dissolved in DMSO to the final concentration 10 mM and stored […]
# (§3) The cytotoxic effect of the tested compounds was determined by MTT assay. MDA-MB-231, MCF-7, HepG2, HeLa, and CCD39Lu cells were seeded in 96 wells plates at density 2x10^4 cells/well and incubated overnight under cell culture condition. Next, cells were treated with tested compounds at concentrations of 10 µM; 5 µM; 2.5 µM; 1.2 µM; 0.6 µM; 0.3 µM; 0.15 […]
# µM. Moreover, GDM (for MCF-7) and 8 (for MCF-7 and MDA-MB-231) due to high cytotoxicity, were additionally tested at a lower concentration range of 2.5 µM; 1.2 µM; 0.6 µM; 0.3 µM; 0.15µM; 0.07 µM; 0.03 µM. DMSO was used as a control, and the concentration […]
# Tested compounds were added to cells in the medium without phenol red. Cells were incubated 72 h at 37 °C in a humidified atmosphere containing 5% CO2.
# Then, the medium was aspirated and MTT solution at a concentration of 0.59 mg/mL in cell culture medium was added to each well. Plates were incubated for 1.5 hours at 37 °C, and then plates were centrifuged for 3 minutes. The formazan crystals were dissolved in 200 µl DMSO and plates were agitated on a plate shaker at 300 –500 rpm for 10 minutes. Absorbance at 570 nm was measured using a plate reader (Biotek Instruments, Elx -800). Data were normalized to the mean absorption of control cells. All experiments were performed at least three times. […]
# SKBR-3 = test: SRB cytotoxicity assay, SKBR-3 (2nd panel); settings: for IC50: Homo sapiens, SK-BR-3, ± SD, SRB, 72 h, mixtures equimolar 1:1; for selectivity index SIHDF (SKBR-3): IC50 normal cell line HDF/IC50 SKBR-3
# Experimental: Human cancer cells SKBR-3 (human breast cancer cell line) and SKOV-3 (ovarian cancer cell line) were cultured in McCoy’s Modified Medium. […]
# Medium. Human Dermal Fibroblasts cell line (HDF) was cultured in Fibroblast Basal Medium.
# (§4) Each medium was supplemented with 10% fetal bovine serum, 1% L-glutamine, and 1% penicillin/streptomycin solution. The cell lines were kept in the incubator at 37◦C. The optimal plating density of cell lines was determined to be 5 × 104. All the cell lines and mediums were obtained from American Type Culture Collection (ATCC) supplied by LGC-Standards. The protein-staining SRB (Sigma-Aldrich) microculture colorimetric assay, developed by the National Cancer Institute (USA) for in vitro antitumor screening was used in this study, to estimate the cell number by providing a sensitive index of total cellular protein content, being linear to cell density. The monolayer cell culture was trypsinized and the cell count was adjusted to 5 × 10^4 cells. To each well of the 96 well microtiter plate, 0.1 mL of the diluted cell suspension (approximately […]) was added. After 24 hours, when a partial monolayer was formed, the supernatant was washed out and 100 μL of six different compound concentrations (0.1, 0.2, 1, 2, 10, and 20 μM) were added to the cells in microtitre plates. The tested compounds were dissolved in DMSO (containing 10 % of water) (100 μL) and the […]
# (§5) lines. The cells were exposed to compounds for 72 hours at 37 °C in a humidified atmosphere (90% RH) containing 5% CO2. After that, 25 μL of 50 % trichloroacetic acid was added to the wells and the plates were incubated for 1 hour at 4◦C. The plates were then washed out with the distilled water to remove traces of medium and next dried by the air. The air-dried plates were stained with 100 μL of 0.4% sulforhodamine B (prepared in 1 % acetic acid) and kept for 30 minutes at room temperature. The unbound dye was removed by rapidly washing with 1% […]
# acetic acid and then air dried overnight. The protein-bound dye was dissolved in 100 μL of 10 mM unbuffered Tris base (pH 10.5) for optical density determination at 490 nm. All cytotoxicity experiments were performed three times. Cell survival was measured as the percentage absorbance compared to the control (nontreated cells). Cytarabine (ara-C) and GDM were used as the internal standards. Additionally biological assays were performed in Human Dermal Fibroblasts cell line (HDF) in aim to evaluate cytotoxicity of GDM and its 1-13 analogs in healthy cells. SI indexes were calculated from equation SI = IC50 normal cell line HDF/IC50 respective cancerous cell line (Table 2). A beneficial SI > 1.0 indicates a compound with efficacy against tumor cell greater than the toxicity against normal cells. […]
# cancer cell lines = test: Cytotoxicity, values summarised over several cancer cell lines
# Experimental: Human cancer cells SKBR-3 (human breast cancer cell line) and SKOV-3 (ovarian cancer cell line) were cultured in McCoy’s Modified Medium. Human cancer cells PC-3 (human prostate cancer cell line) were cultured in F-12K medium, as well as A549 cell line (lung cancer cell line). U-87MG cells (glioblastoma cell line) were cultured in Eagle’s Minimal Essential Medium. Human Dermal Fibroblasts cell line (HDF) was cultured in Fibroblast Basal Medium.
# as §4, §5
# acetic acid and then air dried overnight. The protein-bound dye was dissolved in 100 μL of 10 mM unbuffered Tris base (pH 10.5) for optical density determination at 490 nm. All cytotoxicity experiments were performed three times. Cell survival was measured as the percentage absorbance compared to the control (nontreated cells). Cytarabine (ara-C) and GDM were used as the internal standards. Additionally biological assays were performed in Human Dermal Fibroblasts cell line (HDF) in aim to evaluate cytotoxicity of GDM and its 1-13 analogs in healthy cells. SI indexes were calculated from equation SI = IC50 normal cell line HDF/IC50 respective cancerous cell line (Table 2). A beneficial SI > 1.0 indicates a compound with efficacy against tumor cell greater than the toxicity against normal cells.
# as §1, §2, §3
# [1] = Homo sapiens, SKBR-3, SKOV-3, PC-3, U-87 and A-549, approximate level or span, read-out: IC50 in 2nd panel of cancer cell lines
Compound,IC50 (HeLa),selectivity index SI (HeLa) (HeLa),IC50 (SKBR-3),selectivity index SIHDF (SKBR-3) (SKBR-3),IC50 (cancer cell lines; [1]),"IC50 (cancer cell lines; Homo sapiens, MDA-MB-231, MCF-7, HeLa and HepG2, read-out: IC50s in 1st panel of cancer cell lines)","IC50 (cancer cell lines; Homo sapiens, span over the four cell lines, read-out: IC50s in MCF-7, MDA-MB-231, A549 and HeLa)","SI indexes (1st panel, text summary) (cancer cell lines; vs CCD39Lu, Table 1)","IC50 (cancer cell lines; SKBR-3, SKOV-3, PC-3, U-87 and A-549, approximate level or span, read-out: IC50 in 2nd panel of cancer cell lines)","IC50 (cancer cell lines; Homo sapiens, approximate level over the three cancer cell lines, mixtures equimolar 1:1, read-out: IC50 in SKBR-3, SKOV-3 and PC-3)"
CO[C@H]1/C=C\C=C(/C)C(=O)NC2=CC(=O)C(NC3CCC3)=C(C[C@@H](C)C[C@H](OC)[C@H](O)[C@@H](C)/C=C(\C)[C@@H]1OC(N)=O)C2=O [Compound 1],1670 ± 540 nM,> 5.99,7440 ± 90 nM,4.03,~7500 nM,,,,,
CO[C@H]1/C=C\C=C(/C)C(=O)NC2=CC(=O)C(NC3CN4CCC3CC4)=C(C[C@@H](C)C[C@H](OC)[C@H](O)[C@@H](C)/C=C(\C)[C@@H]1OC(N)=O)C2=O (some centres unmarked) [Compound 8],1060 ± 260 nM,0.82,1490 ± 290 nM,2.16,,100 to 1000 nM,90 to 1060 nM,< 1,,
C=CC[N+]12CCC(CC1)C(NC1=C3C[C@@H](C)C[C@H](OC)[C@H](O)[C@@H](C)/C=C(\C)[C@H](OC(N)=O)[C@@H](OC)/C=C\C=C(/C)C(=O)NC(=CC1=O)C3=O)C2 (some centres unmarked) [Compound 9],9250 ± 980 nM,> 1.08,3120 ± 10 nM,1.70,2000 to 3000 nM,,,,,
C/C=C/C[N+]12CCC(CC1)C(NC1=C3C[C@@H](C)C[C@H](OC)[C@H](O)[C@@H](C)/C=C(\C)[C@H](OC(N)=O)[C@@H](OC)/C=C\C=C(/C)C(=O)NC(=CC1=O)C3=O)C2 (some centres unmarked) [Compound 10],7430 ± 3210 nM,> 1.35,1940 ± 520 nM,1.53,~1700 nM,,,,1290 to 1940 nM,
CO[C@H]1/C=C\C=C(/C)C(=O)NC2=CC(=O)C(NC3C[N+]4(C/C=C/c5ccccc5)CCC3CC4)=C(C[C@@H](C)C[C@H](OC)[C@H](O)[C@@H](C)/C=C(\C)[C@@H]1OC(N)=O)C2=O (some centres unmarked) [Compound 13],8140 ± 640 nM,> 1.23,2020 ± 110 nM,1.89,2000 to 3000 nM,,,,,~2000 nM
